From PubChem BioAssay (NCI)
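Cultured in 96-well plates, cells were exposed to test compound for 48 hours across five concentrations. TGI denotes the concentration required for complete inhibition of growth.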

Columns and labels:
Assay in all cases: growth of human tumour cells (NCI), 48 h
SW-620 colon = test system: SW-620 colon
KM12 colon = test system: KM12 colon
T-47D breast = test system: T-47D breast
HL-60(TB) leukemia = test system: HL-60(TB) leukemia
HCT-116 colon = test system: HCT-116 colon
SNB-19 CNS = test system: SNB-19 CNS
MALME-3M melanoma = test system: MALME-3M melanoma
BT-549 breast = test system: BT-549 breast
OVCAR-8 ovarian = test system: OVCAR-8 ovarian
HCC-2998 colon = test system: HCC-2998 colon
K-562 leukemia = test system: K-562 leukemia
NCI-H23 lung = test system: NCI-H23 lung
HOP-62 NSCLC = test system: HOP-62 NSCLC
UO-31 renal = test system: UO-31 renal
MDA-N = test system: MDA-N
OVCAR-4 ovarian = test system: OVCAR-4 ovarian
UACC-62 melanoma = test system: UACC-62 melanoma

## COc1ccc(-c2nc(N(C)C)c3ccccc3n2)cc1
SW-620 colon
  TGI: 63.5 µM
KM12 colon
  TGI: 68.8 µM
T-47D breast
  TGI: 49.1 µM
HL-60(TB) leukemia
  TGI: 32.2 µM
HCT-116 colon
  TGI: 17.4 µM
SNB-19 CNS
  TGI: > 100 µM
MALME-3M melanoma
  TGI: 42.1 µM
BT-549 breast
  TGI: 43.5 µM
OVCAR-8 ovarian
  TGI: > 100 µM
HCC-2998 colon
  TGI: 23.5 µM
K-562 leukemia
  TGI: 40.7 µM
NCI-H23 lung
  TGI: 69 µM
HOP-62 NSCLC
  TGI: 51.5 µM
UO-31 renal
  TGI: 15.8 µM
MDA-N
  TGI: 32.5 µM
OVCAR-4 ovarian
  TGI: > 100 µM
UACC-62 melanoma
  TGI: 37.6 µM

## COc1ccc(-n2nnc3c(C#N)c(-c4ccccc4)c(C)n3c2=O)cc1
SW-620 colon
  TGI: > 100 µM
KM12 colon
  TGI: > 100 µM
T-47D breast
  TGI: > 100 µM
HL-60(TB) leukemia
  TGI: 68.2 µM
HCT-116 colon
  TGI: > 100 µM
SNB-19 CNS
  TGI: > 100 µM
MALME-3M melanoma
  TGI: > 100 µM
BT-549 breast
  TGI: > 100 µM
OVCAR-8 ovarian
  TGI: > 100 µM
HCC-2998 colon
  TGI: > 100 µM
K-562 leukemia
  TGI: > 100 µM
NCI-H23 lung
  TGI: > 100 µM
HOP-62 NSCLC
  TGI: > 100 µM
UO-31 renal
  TGI: > 100 µM
MDA-N
  TGI: > 100 µM
OVCAR-4 ovarian
  TGI: > 100 µM
UACC-62 melanoma
  TGI: > 100 µM

## COC(=O)[C@@]12CC[C@]1(C(=O)OC)C1C(C)=CC(=O)O[C@@]12C (stereo not given in full)
SW-620 colon
  TGI: > 100 µM
KM12 colon
  TGI: > 100 µM
T-47D breast
  TGI: > 100 µM
HL-60(TB) leukemia
  TGI: > 100 µM
HCT-116 colon
  TGI: > 100 µM
SNB-19 CNS
  TGI: > 100 µM
MALME-3M melanoma
  TGI: > 100 µM
BT-549 breast
  TGI: > 100 µM
OVCAR-8 ovarian
  TGI: > 100 µM
HCC-2998 colon
  TGI: > 100 µM
K-562 leukemia
  TGI: > 100 µM
NCI-H23 lung
  TGI: > 100 µM
HOP-62 NSCLC
  TGI: > 100 µM
UO-31 renal
  TGI: > 100 µM
MDA-N
  TGI: > 100 µM
OVCAR-4 ovarian
  TGI: > 100 µM
UACC-62 melanoma
  TGI: > 100 µM

## CCCCCCc1cc2cc(C(=O)Nc3ccccc3F)c(=N)oc2cc1O
SW-620 colon
  TGI: > 100 µM
KM12 colon
  TGI: 19.7 µM
T-47D breast
  TGI: 12.4 µM
HL-60(TB) leukemia
  TGI: 31.9 µM
HCT-116 colon
  TGI: 20.6 µM
SNB-19 CNS
  TGI: 56.2 µM
MALME-3M melanoma
  TGI: 57.6 µM
BT-549 breast
  TGI: 23.2 µM
OVCAR-8 ovarian
  TGI: 8.34 µM
HCC-2998 colon
  TGI: 48.1 µM
K-562 leukemia
  TGI: > 100 µM
NCI-H23 lung
  TGI: 8.03 µM
HOP-62 NSCLC
  TGI: 31.8 µM
UO-31 renal
  TGI: 17.5 µM
MDA-N
  TGI: 24 µM
OVCAR-4 ovarian
  TGI: 22.4 µM
UACC-62 melanoma
  TGI: 36.1 µM

## CN(C)CCCc1cccnc1
SW-620 colon
  TGI: > 100 µM
KM12 colon
  TGI: > 100 µM
T-47D breast
  TGI: > 100 µM
HL-60(TB) leukemia
  TGI: > 100 µM
HCT-116 colon
  TGI: > 100 µM
SNB-19 CNS
  TGI: > 100 µM
MALME-3M melanoma
  TGI: > 100 µM
BT-549 breast
  TGI: > 100 µM
OVCAR-8 ovarian
  TGI: > 100 µM
HCC-2998 colon
  TGI: > 100 µM
K-562 leukemia
  TGI: > 100 µM
NCI-H23 lung
  TGI: > 100 µM
HOP-62 NSCLC
  TGI: > 100 µM
UO-31 renal
  TGI: > 100 µM
MDA-N
  TGI: > 100 µM
OVCAR-4 ovarian
  TGI: > 100 µM
UACC-62 melanoma
  TGI: > 100 µM
